Results taken from patent US20130317027A1, “COMPOUNDS AND THERAPEUTIC USES THEREOF” (Myrexis, Inc, priority 2010, published 2013).

Assays:
[1] = tested on: Cancer cell lines (SCLC, glioma, colon cancer and others)
Protocol: Experiments were conducted in HCT116 cells. […] For compound combination analyses, the MacSynergy™ II protocol and program were utilized, following the recommendations of the developers (Prichard and Shipman, 1990). Prior to combinations of compounds, dose curves of cells treated with a single compound were generated to define relevant compound doses to use in the combination analysis. Typically, relevant doses were those found in the inflection portion of a sigmoidal dose-response curve. Utilizing these optimized conditions, cells were dosed with Nampt inhibitor plus the test compound at a variety of concentrations of each, and viability was assessed using CellTiter-Glo. Data was processed using the MacSynergy™ II algorithm, which subtracted from actual data a prediction of compound additivity. Thresholds for meaningful synergy were defined based upon the recommendations of the developers (Prichard and Shipman, 1990).
Cancer cell lines used in these studies represented cancer types found to be sensitive to Nampt inhibition [e.g. non-Hodgkins lymphoma, multiple myeloma, glioma, non-small cell lung carcinoma (NSCLC), small cell lung carcinoma (SCLC), ovarian cancer and colorectal cancer].

[2] = tested on: cell lines (cancer, normal and primary cells); assay: NA Rescue assay (cytotoxicity with nicotinic acid added); format: cell-based; conditions: fixed dose
Protocol: Cell lines were treated with a fixed dose of Exemplary Compound A and screened for NA rescue and Naprt1 expression by immunoblotting and quantitative RT-PCR (Table 7). […] The 176 cell lines included 5 normal (non-cancerous) cells and 3 primary cells (italicized in the table), all of which rescued. Naprt1 was quantified by western blotting and q-RT-PCR in 164 and 123 of the 176 cell lines, respectively. […] A statistically significant (p value <0.0001) correlation existed between NA rescue phenotype and Naprt1 protein or mRNA expression levels.
Additional cancer cell lines were treated with Exemplary Compounds A, C, D, E, F, G and H (identified below) (Table 8). The NA rescue phenotype of a particular cancer cell line was maintained for all Nampt inhibitors tested.

MDA-MB-436 cells = assay: Synergy between Nampt inhibitors and the PARP inhibitor olaparib in BRCA1-deficient cells; format: cell-based; conditions: loss of BRCA1 function
Protocol: Experiments were conducted in HCT116 cells.
This was not fully unexpected, as PARP inhibitors are relatively benign to cells (like HCT116 cells) that have a functional homologous recombination (HR) system to repair double stranded DNA damage (Ashworth A. Journal of Clinical Oncology 26(22):3785-90 (2008)). In fact, the model (FIG. 1A) predicts that inhibiting an enzyme, such as PARP, that consumes NAD^+ would protect HR-proficient cells from Nampt inhibition. However, in cells that have lost the function of BRCA tumor suppressors, HR function is compromised, and these cells are killed by PARP inhibitors (Ashworth A. (2008) Journal of Clinical Oncology 26(22):3785-90). Thus, it was hypothesized that PARP inhibitors, while being antagonistic with Nampt inhibitors in most cells, would be synergistic in cells with BRCA mutations that render the cells HR-deficient (FIG. 1B). Indeed, in MDA-MB-436 cells, which have a loss of BRCA1 function, Nampt inhibitors (a known Nampt inhibitor, Exemplary Compound A and Exemplary Compound I, both Exemplary Compounds identified hereinafter) and the PARP inhibitor olaparib synergized in causing cell death. […] Of further significance to these findings, it is becoming clear that other routes of HR deficiency in oncogenesis (other than BRCA sequence mutation) could also lead to sensitivity to PARP inhibition plus Nampt inhibitor combination therapy. […]

Compound: O=C(NCc1cccnc1)Nc1ccc(COc2ccccc2-c2ccccc2)cc1 [Exemplary Compound A]
- cytotoxicity in combination with 4HC [1]: Synergistic cytotoxicity
- cytotoxicity in combination with 5-FU [1]: Synergistic cytotoxicity
- cytotoxicity in combination with temozolomide [1]: Synergistic cytotoxicity
- NA rescue ([2]; A549 cells, lung (NSCLC)): yes
- NA rescue ([2]; ACHN cells, kidney): yes
- NA rescue ([2]; AsPC-1 cells, pancreas): yes
- NA rescue ([2]; BEAS-2B cells, lung (normal)): yes
- NA rescue ([2]; BT-474 cells, breast): yes
- NA rescue ([2]; BxPC-3 cells, pancreas): yes
- NA rescue ([2]; CCRF-CEM cells, lymphocytic leukemia): yes
- NA rescue ([2]; CFPAC-1 cells, pancreas): yes
- NA rescue ([2]; CHLA-90 cells, brain, neuroblastoma): no
- NA rescue ([2]; Calu-1 cells, lung (NSCLC)): yes
- NA rescue ([2]; Calu-6 cells, lung (NSCLC)): yes
- NA rescue ([2]; Capan-1 cells, pancreas): yes
- NA rescue ([2]; DBTRG-05MG cells, brain, glioblastoma): yes
- NA rescue ([2]; DEL cells, lymphoma): partial
- NA rescue ([2]; DU145 cells, prostate): yes
- NA rescue ([2]; DU4475 cells, breast): yes
- NA rescue ([2]; Daoy cells, brain, medulloblastoma): yes
- NA rescue ([2]; Daudi cells, lymphoma): no
- NA rescue ([2]; EKVX cells, lung (NSCLC)): yes
- NA rescue ([2]; H4 cells, brain, neuroglioma): partial
- NA rescue ([2]; H9 cells, lymphoma): no
- NA rescue ([2]; HCC78 cells, lung (NSCLC)): no
- NA rescue ([2]; HOP18 cells, lung (NSCLC)): yes
- NA rescue ([2]; HOP62 cells, lung (NSCLC)): yes
- NA rescue ([2]; HOP92 cells, lung (NSCLC)): yes
- NA rescue ([2]; HOS cells, osteosarcoma): no
- NA rescue ([2]; HepG2 cells, hepatocellular carcinoma): no
- NA rescue ([2]; Hs683 cells, brain, glioma): yes
- NA rescue ([2]; Hs766T cells, pancreas): yes
- NA rescue ([2]; Huh7 cells, hepatocellular carcinoma): yes
- NA rescue ([2]; IMR-32 cells, brain, neuroblastoma): no
- NA rescue ([2]; IMR-90 cells, lung (normal)): yes
- NA rescue ([2]; JJN3 cells, myeloma (plasma cell leukemia)): yes
- NA rescue ([2]; Jurkat cells, lymphocytic leukemia): yes
- NA rescue ([2]; KARPAS-299 cells, lymphocytic leukemia): no
- NA rescue ([2]; KELLY cells, brain, oligodendroglioma): no
- NA rescue ([2]; KNS-42 cells, brain, glioma): no
- NA rescue ([2]; L-82 cells, lymphoma): yes
- NA rescue ([2]; LA-N-6 cells, brain, neuroblastoma): yes
- NA rescue ([2]; LNCAP cells, prostate): yes
- NA rescue ([2]; M059J cells, brain, malignant glioblastoma, glioma): no
- NA rescue ([2]; MALME-3 cells, skin (normal)): yes
- NA rescue ([2]; MG-63 cells, osteosarcoma): no
- NA rescue ([2]; MM.1S cells, myeloma): yes
- NA rescue ([2]; MOLP-8 cells, myeloma): partial
- NA rescue ([2]; MOLT4 cells, lymphocytic leukemia): yes
- NA rescue ([2]; MONO-MAC-6 cells, lymphocytic leukemia): partial
- NA rescue ([2]; MRC-5 cells, lung (normal)): yes
- NA rescue ([2]; NAMALWA cells, lymphoma): no
- NA rescue ([2]; NCI-H23 cells, lung (NSCLC)): yes
- NA rescue ([2]; NCI-H69 cells, lung (small cell)): no
- NA rescue ([2]; NCI-H146 cells, lung (small cell)): yes
- NA rescue ([2]; NCI-H209 cells, lung (small cell)): yes
- NA rescue ([2]; NCI-H226 cells, lung (NSCLC)): yes
- NA rescue ([2]; NCI-H322 cells, lung (NSCLC)): no
- NA rescue ([2]; NCI-H345 cells, lung (small cell)): yes
- NA rescue ([2]; NCI-H441 cells, lung (NSCLC)): yes
- NA rescue ([2]; NCI-H596 cells, lung (NSCLC)): partial
- NA rescue ([2]; NCI-H1299 cells, lung (NSCLC)): yes
- NA rescue ([2]; NCI-H1437 cells, lung (NSCLC)): yes
- NA rescue ([2]; NCI-H1568 cells, lung (NSCLC)): yes
- NA rescue ([2]; NCI-H1792 cells, lung (NSCLC)): yes
- NA rescue ([2]; NCI-H1944 cells, lung (NSCLC)): yes
- NA rescue ([2]; NCI-H1993 cells, lung (NSCLC)): yes
- NA rescue ([2]; OVCAR-3 cells, ovary): yes
- NA rescue ([2]; PBMC, primary blood): yes
- NA rescue ([2]; PFSK-1 cells, brain, malignant neuroectodermal tumor): partial
- NA rescue ([2]; Panc-1 cells, pancreas): yes
- NA rescue ([2]; RPMI-8226 cells, myeloma): partial
- NA rescue ([2]; Ramos cells, lymphoma): yes
- NA rescue ([2]; SAEC, primary lung): yes
- NA rescue ([2]; SF-268 cells, brain, astrocytoma, anaplastic): no
- NA rescue ([2]; SF-539 cells, brain, gliosarcoma): yes
- NA rescue ([2]; SH-SY5Y cells, brain, neuroblastoma, bone marrow met.): no
- NA rescue ([2]; SHP-77 cells, lung (small cell)): yes
- NA rescue ([2]; SJSA1 cells, osteosarcoma): yes
- NA rescue ([2]; SK-ES-1 cells, osteosarcoma): yes
- NA rescue ([2]; SK-N-FI cells, brain, neuroblastoma, bone marrow met.): no
- NA rescue ([2]; SK-N-MC cells, brain, neuroepithelioma, supra-orbital met.): no
- NA rescue ([2]; SK-N-SH cells, brain, neuroblastoma, metastatic): no
- NA rescue ([2]; SMS-KCNR cells, brain, neuroblastoma, ALK (R1275Q).): yes
- NA rescue ([2]; SNB-19 cells, brain, glioblastoma): no
- NA rescue ([2]; SNU182 cells, hepatocellular carcinoma): yes
- NA rescue ([2]; SNU449 cells, hepatocellular carcinoma): yes
- NA rescue ([2]; SR-786 cells, lymphoma): no
- NA rescue ([2]; SU-DHL-1 cells, lymphoma): no
- NA rescue ([2]; SU-DHL-10 cells, lymphoma): yes
- NA rescue ([2]; SW1088 cells, brain, astrocytoma): yes
- NA rescue ([2]; SW1783 cells, brain, astrocytoma): yes
- NA rescue ([2]; Saos-2 cells, osteosarcoma): yes
- NA rescue ([2]; T24 cells, bladder): yes
- NA rescue ([2]; THP-1 cells, lymphocytic leukemia): yes
- NA rescue ([2]; U251 cells, brain, glioblastoma): no
- NA rescue ([2]; U-2 OS cells, osteosarcoma): no
- NA rescue ([2]; U-937 cells, lymphoma): yes
- NA rescue ([2]; UWB1.289 cells, ovary): yes
- NA rescue ([2]; Wi-38 cells, lung (normal)): yes
- cell lines that completely rescued with NA ([2]; of 176 cell lines tested): 113
- cell lines that did not rescue with NA ([2]; of 176 cell lines tested): 47
- cell lines that partially rescued with NA ([2]; of 176 cell lines tested): 16
- NA rescue ([2]; keratinocytes, primary skin): yes
- NA rescue ([2]; no. 10 cells, brain, glioma, anaplastic): no
- NA rescue ([2]; no. 11 cells, brain, glioma, anaplastic): partial
- drug interaction with the PARP inhibitor olaparib in causing cell death (MDA-MB-436 cells): synergized
